The text below walks through data of article PMC7193532 (Acta Crystallographica. Section D, Structural Biology, 2020).

≈ marks a conversion by molar mass, not a printed value. *1 amine or outer side, *2 acyl side, *3 side chain or, on linkers, in order; H or OH if unused. Where a SMILES comes first, the peptide text is derived from it. Bridges are numbered along the chain shown (N, C = ends). [ ]: non-standard residue; d: D form. The star is where a group is joined. ξ: configuration not given here. Phe(3R-OH) = O=C([C@@H](N[*:1])[C@H](O[*:3])c1ccccc1)[*:2]; NMeTrp(4-OMe) = CN[CH](Cc1c[nH]c2cccc(OC)c12)C(=O)O; X1 = O=C(C(N[*:1])C(O)c1ccccc1)[*:2]; NMeT = CN[CH](C(=O)O)[CH](C)O; NMeI = CC[CH](C)[CH](NC)C(=O)O; ξNMe2Val = CC(C)C(C(=O)*)N(C)C; NMeL = CN[CH](CC(C)C)C(=O)O; NMeV = CN[CH](C(=O)O)C(C)C

By MIC90 is commonly meant the lowest concentration that inhibits either 90% of growth or 90% of the strains tested, depending on the study. High values mean weaker potency, low ones greater potency. By stoichiometry N is commonly meant the number of molecules, sites or subunits per partner or assembly.

One data set deals with ClpC1-FL (Mycobacterium tuberculosis, UniProt P9WPC9). It is filed as binding. The following applies: for Stoichiometry (Sm): calculated from SPR responses, compound molecules per ClpC1; for improvement of χ^2, multi-site versus one-site fit: multi-site fit better; for difference between Kd1 and Kd2: multi-site model.
For data set [1] the following is noted: co-crystallization attempts.
In data set [2] the test system is ClpC1–ClpP1–ClpP2 complex. The following applies: 2019, cited from earlier work; for effect on proteolytic activity: ECU, lassomycin: ref Choules et al., Gavrish et al., 2014; for effect on proteolysis: CYMA, RUF-I: ref Schmitt et al., 2011, Choules et al.
Data set [3] deals with ClpC1. The following applies: cited from earlier work.
The subject of data set [4] is ClpC1. To be noted: cited from earlier work. The source holds these as a separate data set.
The target of data set [5] is full-length ClpC1 (ClpC1-FL) (Mycobacterium tuberculosis) (UniProt P9WPC9). Briefly: SPR. For orientation: Surface plasmon resonance follows binding to a sensor surface in real time, without labels.
For data set [6], the target named is N-terminal domain of ClpC1 (ClpC1-NTD), residues 1-145 plus a C-terminal His tag (Mycobacterium tuberculosis) (UniProt P9WPC9). Briefly: crystal structure.

Regarding `CCC(C)C(C(=O)NC1C(=O)N(C)C(C(C)O)C(=O)NC(C(C)C)C(=O)N(C)C(CC(C)C)C(=O)NC(C(C)C)C(=O)N(C)C(C(C)C)C(=O)N(C)C(Cc2c[nH]c3cccc(OC)c23)C(=O)NC(C(C)C)C(=O)NC(C(O)c2ccccc2)C(=O)NC(C(C)C)C(=O)OC1C)N(C)C(=O)C(NC(=O)C(C(C)C)N(C)C)C(C)C` (stereo not drawn) [ECU, ecumicin] (ξNMe2Val-V[NMeI]T[NMeT]V[NMeL]V[NMeV][NMeTrp(4-OMe)]V[X1]V; ester 3-C; configuration not given here), at ClpC1-FL (1:1 Langmuir model, smaller = better fit), the “χ^2 of one-site fit” value stood at 16.1. Also, at ClpC1-FL, the “Stoichiometry (Sm)” value is listed as 2.2; the “improvement of χ^2, multi-site versus one-site fit” value is on record as “fivefold”; the “difference between Kd1 and Kd2” value is given as “about 18 fold”. Moreover, the “χ^2 of multi-site fit” value at ClpC1-FL (heterogeneous ligand model, smaller = better fit) was 3.2. Also, the MIC90 in the data set on Mtb was determined as 110 ± 13 nM (≈ 0.176 µg/mL). For the same molecule, the “solubility (in words)” value in data set [1] is given as “poor solubility”. Also, the “effect on proteolytic activity” value in data set [2] is “decrease the proteolytic activity”. In addition, in the data set with ClpC1 [3], the “effect on ATPase activity” value is listed as “activate the ATPase activity” and the “enhancement of ATPase activity of ClpC1” value is reported as “at least twofold”.

As to ohmyungsamycin B [OMS-B], the “reduction in binding relative to ECU” value on ClpC1-FL (structural analogs of ECU) is on record as “tenfold”.

Consider `C/C=C/C[C@@H]1NC(=O)[C@H](CC(C)C)N(C)C(=O)[C@H](CC(C)C)NC(=O)[C@H](Cc2ccc(O)c([N+](=O)[O-])c2)NC(=O)[C@H](C)N2C(=O)[C@H](CC(C)C2O)N(C)C(=O)[C@H](Cc2cn(C(C)(C)C3CO3)c3ccccc23)NC1=O` (stereo partly drawn) [RUF-I, rufomycin I], for which the effect on proteolysis entry in data set [2] is reported as “inhibition”. For the same molecule, in the data set on ClpC1 [3], the “effect on ATPase activity” value is on record as “no significant effect” and the “enhancement of ATPase activity of ClpC1” value is recorded as “no significant effect”. In the data set with ClpC1 [4], the “binding in the presence of ECU” value is listed as “cannot bind in the presence of ECU”.

In data set [5], ohmyungsamycin A (OMS-A) (peptide) had a stoichiometry N of 2.2.

As to cyclomarin A [CYMA, reference compound], in data set [2], the effect on proteolysis entry is “activation”. Moreover, the “effect on ATPase activity” value with ClpC1 [3] is “no effect on the ATPase activity”.

As for lassomycin [reference compound], the “effect on proteolytic activity” value in data set [2] was “decrease the proteolytic activity”. The “effect on ATPase activity” value with ClpC1 [3] was “activate the ATPase activity”.

In the case of ecumicin (ECU) (peptide), the stoichiometry N in data set [5] was 2.2. Further, the stoichiometry N (ECU per ClpC1-NTD) in data set [6] was found to be 2.

In the case of ohmyungsamycin B (OMS-B) (peptide), in data set [5], the Kd1 (site 1, multi-site fit) came out at 962 nM and the Kd2 (site 2, multi-site fit) was 1740 nM.

For `CN[C@H](C(=O)N[C@H](C(=O)N[C@@H]1C(=O)N(C)[C@@H]([C@@H](C)O)C(=O)N[C@@H](C(C)C)C(=O)N(C)[C@@H](CC(C)C)C(=O)N[C@@H](C(C)C)C(=O)N(C)[C@@H](C(C)C)C(=O)N(C)[C@@H](Cc2c[nH]c3cccc(OC)c23)C(=O)N[C@@H](C(C)C)C(=O)N[C@@H]([C@H](O)c2ccccc2)C(=O)N[C@@H](C(C)C)C(=O)O[C@@H]1C)C(C)C)C(C)C` [OMS-A, ohmyungsamycin A] (H-[NMeV]VT[NMeT]V[NMeL]V[NMeV][NMeTrp(4-OMe)]V[Phe(3R-OH)]V; ester 3-C), on ClpC1-FL, the “Stoichiometry (Sm)” value is on record as 2.2; the “improvement of χ^2, multi-site versus one-site fit” value is “threefold”; the “difference between Kd1 and Kd2” value is reported as “fivefold”.
